pKi: −log10 of the molar value. Activity calls are given as the source filed them. The rule behind the calls is not given here.
Experiments:
[1] = target: Serotonin 2 (5-HT2) receptor (Rattus norvegicus, UniProt P30994+P08909+P14842)
Description: In vitro binding affinity against rat 5-hydroxytryptamine 2 receptor.

[2] = target: Muscarinic acetylcholine receptor
Description: In vitro binding affinity against Muscarinic acetylcholine receptors in rat brain.

D(1A) dopamine receptor = D(1A) dopamine receptor (Rattus norvegicus, UniProt P18901); test: biochemical
Description: In vitro binding affinity against Dopamine receptor D1 in rat striatal tissue

Rattus norvegicus [3] = species: Rattus norvegicus; test: animal or person; conditions: sc, read-out: Inhibition
Rattus norvegicus [4] = test: In vivo inhibition of apomorphine-mediated stereotypy in rats administered subcutaneously at 20 mg/kg expressed as percent inhibition; format: functional; conditions: sc, route subcutaneous
Rattus norvegicus [5] = species: Rattus norvegicus; test: animal or person; conditions: sc
Rattus norvegicus [6] = test: In vivo inhibition of apomorphine-mediated stereotypy in rats administered subcutaneously at 20 mg/kg expressed as ED50 (mg/kg); Onactive; format: functional, organism-based; set-up: dose 20 mg/kg
Rattus norvegicus [7] = test: In vivo inhibition of apomorphine-mediated stereotypy in rats administered subcutaneously at 20 mg/kg expressed as ED50 (mg/kg); Inactive; format: functional, organism-based; set-up: dose 20 mg/kg
Rattus norvegicus [8] = test: In vivo inhibition of apomorphine-mediated stereotypy in rats administered subcutaneously at 20 mg/kg expressed as ED50 (mg/kg); format: functional; conditions: sc, route subcutaneous
Rattus norvegicus [9] = species: Rattus norvegicus; test: animal or person; conditions: sc, read-out: Inhibition; remark: listed apart in the source
Rattus norvegicus [10] = test: In vivo inhibition of apomorphine-mediated stereotypy in rats administered subcutaneously at 10 mg/kg expressed as percent inhibition; format: functional; conditions: sc, route subcutaneous

Chain of D(1A) dopamine receptor (P18901 whole entry): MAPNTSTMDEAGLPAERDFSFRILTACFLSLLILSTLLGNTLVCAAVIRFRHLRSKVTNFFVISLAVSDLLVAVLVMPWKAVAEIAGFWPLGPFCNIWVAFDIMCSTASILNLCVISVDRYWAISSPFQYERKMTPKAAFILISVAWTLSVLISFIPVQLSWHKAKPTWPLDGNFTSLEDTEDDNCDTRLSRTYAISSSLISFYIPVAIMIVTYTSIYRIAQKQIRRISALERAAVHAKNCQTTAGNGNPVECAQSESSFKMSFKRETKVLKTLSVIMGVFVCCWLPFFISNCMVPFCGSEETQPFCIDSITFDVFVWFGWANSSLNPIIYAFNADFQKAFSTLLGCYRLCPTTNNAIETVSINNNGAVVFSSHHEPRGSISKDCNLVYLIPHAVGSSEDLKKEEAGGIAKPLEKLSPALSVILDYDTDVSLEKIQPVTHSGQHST

SMILES	Ki [1] [nM]	Ki [2] [nM]	pKi (D(1A) dopamine receptor)	inhibition in vivo at 20 mg/kg (Rattus norvegicus [3]) [%]	also measured
CN1CCN(C2=Nc3cccnc3Nc3ccccc32)CC1	124	665	5.62	0	
CN1CCN(C2=Nc3ccccc3N(C=O)c3ccncc32)CC1	2053	3450	5.52	0	
Cc1cnc2c(c1)N=C(N1CCN(C)CC1)c1ccccc1N2	103	523	5.95		
CN1CCN(C2=Nc3cnccc3Nc3ccccc32)CC1	837	430	4.87		
CN1CCN(C2=Nc3ccccc3N(C=O)c3ncccc32)CC1	7120	3415	4.52	0	
CN1CCN(C2=Nc3cccnc3Nc3ccc(F)cc32)CC1	124	415	6.17		inhibition in vivo at 20 mg/kg (Rattus norvegicus [4]): 55%
CN1CCN(C2=Nc3cccnc3Nc3cc(Cl)ccc32)CC1	48	366	6.67	70	
CN1CCN(C2=Nc3ccccc3Nc3ncccc32)CC1	103	303	6.14	0	
CN1CCN(C2=Nc3ccccc3Nc3ccc(Cl)cc32)CC1 [ISOCLOZAPINE]		21	7.55		ED50 (Rattus norvegicus [5]): 1.7 mg/kg
Cc1ccc2c(c1)C(N1CCN(C)CC1)=Nc1cccnc1N2	94	48	6.40	75	
CN1CCN(C2=Nc3ccccc3Nc3ccncc32)CC1	29	3260	6.52	45	
CN1CCN(C2=Nc3cc(F)ccc3Cc3ccccc32)CC1 [FLUPERLAPINE]	3.8	25	6.85		
CN1CCN(C2=Nc3cc(Cl)ccc3Sc3ccccc32)CC1 [ISOCLOTHIAPINE]	4.1	5.6	6.62		ED50 (Rattus norvegicus [6]): inactive
CN1CCN(C2=Nc3cc(Cl)ccc3Nc3ccccc32)CC1 [CLOZAPINE]				0	ED50 (Rattus norvegicus [7]): inactive
CN1CCN(C2=Nc3cccnc3N(C)c3ccccc32)CC1	2900	175	5.22	0	
CN1CCN(C2=Nc3ccccc3Sc3ccc(Cl)cc32)CC1 [CLOTHIAPINE]	0.6	136	7.85	100	ED50 (Rattus norvegicus [5]): 0.72 mg/kg
CN1CCN(C2=Nc3cccnc3N(C=O)c3ccccc32)CC1	1870	311	4.32	0	
O=C(CCCN1CCC(O)(c2ccc(Cl)cc2)CC1)c1ccc(F)cc1 [HALOPERIDOL]					ED50 (Rattus norvegicus [8]): 0.14 mg/kg; inhibition in vivo at 0.6 mg/kg (Rattus norvegicus [9]): 100%
CN1CCN(C2=Nc3cccnc3Nc3ccc(Cl)cc32)CC1	6.2	65	5.67		inhibition in vivo at 10 mg/kg (Rattus norvegicus [10]): 75%
